From patent publication US20030109571A1, “Thromboxane ligands without blood clotting side effects” (ALLERGAN SALES, INC., priority 1993, published 2003)
Read-outs that look alike come from different tables or passages of the source. Marks after values point to notes of the source that are not given here.

How the values were obtained:
vasculature = settings: in words; cited from earlier work
Platelets (Human) = experiment: Platelet aggregation in platelet-rich plasma from healthy human donors; format: cell-based; settings: for Kb: antagonist, read-out: KB Platelets aggreg
Method: (§1) Activity at different prostanoid receptors was measured in vitro in isolated smooth muscle preparations. FP-activity was measured as contraction of the isolated feline iris sphincter. EP1-activity was measured as contraction of the longitudinal smooth muscle of the isolated guinea pig ileum. EP3-activity was measured as inhibition of the twitch response induced by electrical field stimulation in the isolated guinea pig was deferens and as contraction of the longitudinal smooth muscle of the isolated chick ileum. TP-vasoconstrictor activity was measured as contraction of rings of the isolated rat thoracic aorta. Effects on platelets from healthy human donors were measured by incubating platelet-rich plasma with the compounds described herein. Inhibition of aggregation was determined by the ability of the compounds described herein to inhibit platelet aggregation in platelet-rich plasma induced by 20 μM ADP.

[1] = molecular target: T1, TP-receptor (vascular, TPVASC) (Rattus norvegicus, UniProt P34978); experiment: TP-vasoconstrictor activity: contraction of rings of isolated rat thoracic aorta, without or with SQ29,548; settings: for Kb: antagonist
T1 construct: measured in vitro in isolated smooth muscle preparations; from tissue; host or cells: rings of isolated rat thoracic aorta
T1 sequence (P34978 1-341): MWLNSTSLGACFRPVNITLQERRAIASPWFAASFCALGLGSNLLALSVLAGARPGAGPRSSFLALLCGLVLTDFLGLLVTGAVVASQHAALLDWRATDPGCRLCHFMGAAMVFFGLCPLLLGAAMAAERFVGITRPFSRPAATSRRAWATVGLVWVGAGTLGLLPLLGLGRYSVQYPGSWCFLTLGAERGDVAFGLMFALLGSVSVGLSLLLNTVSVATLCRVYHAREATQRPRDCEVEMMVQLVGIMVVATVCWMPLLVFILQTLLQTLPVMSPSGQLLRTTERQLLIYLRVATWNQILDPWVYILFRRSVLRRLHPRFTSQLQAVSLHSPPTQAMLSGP
Method: as §1
In addition, inhibition by the thromboxane A2-receptor antagonist SQ29,548 ([1S-[1α, 2α (5Z), 3α, 4α]]-7-[3-[[2-[phenylamino)carbonyl]-hydrazino]methyl]-7-oxabicyclo[2.2.1] hept-2-yl]-5-heptenoic acid) of vasoconstrictor activity was investigated.

platelets = settings: in words; cited from earlier work
[2] = Dog intraocular pressure, topical dosing, applanation pneumatonometry; format: in vivo; settings: for Intraocular pressure change: dog
Method: (§2) The compounds were prepared at the said concentrations in a vehicle comprising 0.1% polysorbate 80 and 10 mM TRIS base. Dogs and monkeys were treated by administering 25 ul to the ocular surface, the contralateral eye received vehicle as a control. Intraocular pressure was measured by applanation pneumatonometry. Experiments were performed with dogs and monkeys. Dog intraocular pressure was measured immediately before drug administration and at 2, 4 and 6 hour thereafter. Additional studies in monkeys were performed over a 5 day period and drug was administered at times 0, 6, 24, 30, 48, 54, 72, 78, and 96 hours. Monkey intraocular pressure was recorded just before drug administration on each day and at the 2 and 4 hour time intervals between dosing.

[3] = Monkey intraocular pressure, topical dosing over 5 days, applanation pneumatonometry; format: in vivo; set-up: Intraocular pressure change: unit not given beside the values; settings: for Intraocular pressure change: monkey
Method: as §2

HPRP = settings: cited from earlier work; for Effect on HPRP: in words
EP3 prostanoid receptor [4] = experiment: EP3-activity: inhibition of electrically induced twitch response in isolated guinea pig vas deferens; settings: read-out: EC50 at EP3(c) (Guinea Pig vas deferens)
Method: as §1

EP1 prostanoid receptor = experiment: EP1-activity: contraction of longitudinal smooth muscle of isolated guinea pig ileum
Method: as §1

[5] = tested on: isolated perfused coronary arteries; settings: at 1 μM; cited from earlier work
FP prostanoid receptor = experiment: FP-activity: contraction of the isolated feline iris sphincter; settings: concentration producing 50% of maximal response; read-out: EC50 at FP (Cat Iris)
Method: as §1

EP3 prostanoid receptor [6] = experiment: EP3-activity: contraction of longitudinal smooth muscle of isolated chick ileum; settings: read-out: EC50 at EP3(d) (Chick Ileum)
Method: as §1

rat aorta = settings: read-out: CD50 contraction of isolated rat aorta; cited from earlier work
[7] = Table 7, read-out: EC50 (Rat Aorta)
[8] = Table 7, read-out: EC50 Platelets aggreg

Q: Which “Action on the vasculature” value (vasculature) does the source give for `CCCCCC(/C=C/C1C2CC(OC(=O)O2)C1C/C=C\CCCC(=O)O)O[Si](C)(C)C(C)(C)C` (stereo not drawn) [Example 16, 7-[6-carboxy-2-cis-hexenyl]-6-[3α-t-butyldimethylsilyloxy-1-trans-octenyl]-3-oxo-2,4-dioxobicyclo [3.2.1] octane] here?
A: weak vasoconstrictor activity

Q: And the “Ability to cause platelet aggregation” value (Platelets (Human); in words)?
A: no or minimal ability

Q: What about the “Activity in contracting vascular smooth muscle” value ([1]; in words) of the same compound?
A: pronounced activity

Q: What about the Action on platelets (platelets) of the same compound?
A: No effect

Q: For “[1S-[1α, 2β(Z), 3(1E, 3R*), 5α]]-7-[3-(3-hydroxy-1-octenyl)-6,6-dimethylbicyclo[3.1.1]hept-2-yl]-5-hepten-1-ol [Example 20]”, which EC50 [1, 7] is on record?
A: 929 nM

Q: With “[1S-[1α, 2α(5Z), 3α, 4α]]-7-[3-[2(phenylamino)carbonyl]-hydrazino]methyl]-7-oxabicyclo [2.2.1]hept-2-yl]-5-hepten-1-ol [Example 22]” as the compound, how does the Kb (Platelets (Human); Table 7) read?
A: 4500 nM

Q: And the Kb ([1]; Table 7)?
A: 18.2 nM

Q: With “9,11-dideoxy-9α,11α-methanoepoxy prostaglandin F2α [Example U-46619, reference compound]” as the compound, how does the Intraocular pressure change ([2]; dose 0.1%, 2 HR after dosing) read?
A: +0.86

Q: What about the Intraocular pressure change ([2]; dose 0.1%, 4 HR after dosing) of the same compound?
A: +1.75

Q: And the Intraocular pressure change ([2]; dose 0.1%, 6 HR after dosing)?
A: +2.7

Q: What about the “Effect on intraocular pressure” value ([2]; dogs, in words) of the same compound?
A: increase in intraocular pressure

Q: And the EC50 (Platelets (Human); [8])?
A: 320 nM

Q: And the “Agonist response, platelet aggregation” value (Platelets (Human); agonist alone at 3.3 × 10-7)?
A: 97.7 ± 1.6 % of max response

Q: What about the “Agonist response, platelet aggregation” value (Platelets (Human); agonist alone at 10-6) of the same compound?
A: 100.0 ± 1.9 % of max response

Q: What about the “Agonist response, platelet aggregation” value (Platelets (Human); agonist alone at 10-7) of the same compound?
A: −7.0 + 1.1 % of max response

Q: What about the “Agonist response, platelet aggregation” value (Platelets (Human); agonist alone at 10-8) of the same compound?
A: 0 % of max response

Q: What about the Intraocular pressure change ([3]; dose not given, 0 HR) of the same compound?
A: 0

Q: What about the Intraocular pressure change ([3]; dose not given, 2 HR) of the same compound?
A: 2.0

Q: And the Intraocular pressure change ([3]; dose not given, 4 HR)?
A: 0.3

Q: And the Intraocular pressure change ([3]; dose not given, 6 HR)?
A: 1.0

Q: What about the “Effect on intraocular pressure” value ([3]; monkeys, in words) of the same compound?
A: increase in intraocular pressure

Q: For “Pinane thromboxane A2 [reference compound]”, which EC50 (Platelets (Human); [8]) is on record?
A: 950 nM

Q: What about the EC50 [1, 7] of the same compound?
A: 203 nM

Q: For “[1S-[1α, 2α(Z), 3β(1E, 3S*), 4α]]-7-[3-(3-hydroxy-4-(4-iodophenoxy)-1-butenyl]-7-oxabicyclo[2.2.1]hept-2-yl]-5-hepten-1-ol [Example 21]”, which EC50 [1, 7] is on record?
A: 0.4 nM

Q: Which results are given for `CCCCCC(/C=C/C1C2CC(OC(=O)O2)C1C/C=C\CCCC(=O)OCc1ccccc1)OC(=O)C(C)(C)C` (stereo not drawn) [Example 11, 7-16-carbobenzoxy-2-cis-hexenyl]-6-[3α-pivaloyloxy-1-trans-octenyl]-3-oxo-2,4-dioxobicyclo[3.2.11 octane]?
A: Intraocular pressure change ([2]; dose 0.1%, 2 HR after dosing): −6.9**; Intraocular pressure change ([2]; dose 0.1%, 4 HR after dosing): −7.7**; Intraocular pressure change ([2]; dose 0.1%, 6 HR after dosing): −9.4**; Effect on HPRP (HPRP): no effect

Q: What does the source list for `CCCCCC(O)/C=C/C1C2CC(OC(=O)O2)C1C/C=C\CCCC(=O)O` (stereo not drawn) [Example 7]?
A: Intraocular pressure change ([2]; dose 0.01%, 2 HR after dosing): −9.7**; Intraocular pressure change ([2]; dose 0.01%, 4 HR after dosing): −11.4**; Intraocular pressure change ([2]; dose 0.01%, 6 HR after dosing): −11.25**; EC50 (EP3 prostanoid receptor [4]): 282 nM; EC50 (EP1 prostanoid receptor): 1240 nM; Inhibition of vasoconstriction of isolated perfused cat coronary artery induced by carbocyclic TXA2 [5]: Inhibited vasoconstriction of isolated perfused cat coronary artery induced by carbocyclic TXA2 by 72% at 1 μM^11; EC50 (Platelets (Human); Table 1, read-out: EC50 Platelets (Human) Aggregation): 24 nM; Agonist response, platelet aggregation (Platelets (Human); agonist alone at 3.3 × 10-8): −8.8 + 1.3 % of max response; Agonist response, platelet aggregation (Platelets (Human); agonist alone at 10-6): 103.0 ± 1.9 % of max response; Agonist response, platelet aggregation (Platelets (Human); agonist alone at 10-7): 100.5 ± 2.2 % of max response; Agonist response, platelet aggregation (Platelets (Human); agonist alone at 10-8): −7.9 + 1.3 % of max response; Agonist response, platelet aggregation (Platelets (Human); agonist alone at 10-9): 0 % of max response; EC50 (FP prostanoid receptor): 433 nM; Intraocular pressure change ([3]; dose 0.01%, 0 HR): 0; Intraocular pressure change ([3]; dose 0.01%, 2 HR): −0.4; Intraocular pressure change ([3]; dose 0.01%, 4 HR): 0; Intraocular pressure change ([3]; dose 0.01%, 6 HR): 0; Intraocular pressure change ([3]; dose 0.01%, 24 HR): −1.0; Intraocular pressure change ([3]; dose 0.01%, 26 HR): 3.2; Intraocular pressure change ([3]; dose 0.01%, 28 HR): −4.6; Intraocular pressure change ([3]; dose 0.01%, 30 HR): −3.2; Intraocular pressure change ([3]; dose 0.01%, 48 HR): −1.8; Intraocular pressure change ([3]; dose 0.01%, 50 HR): −3.8; Intraocular pressure change ([3]; dose 0.01%, 52 HR): −4.0; Intraocular pressure change ([3]; dose 0.01%, 54 HR): −4.2; Intraocular pressure change ([3]; dose 0.01%, 72 HR): 4.2; Intraocular pressure change ([3]; dose 0.01%, 74 HR): −2.0; Intraocular pressure change ([3]; dose 0.01%, 76 HR): −3.2; Intraocular pressure change ([3]; dose 0.01%, 78 HR): −4.0; Intraocular pressure change ([3]; dose 0.01%, 96 HR): −2.0; Intraocular pressure change ([3]; dose 0.01%, 98 HR): −2.2; Intraocular pressure change ([3]; dose 0.01%, 100 HR): −3.2; EC50 ([1]; Table 1, read-out: EC50 at TPVASC (Rat Aorta)): 0.23 nM; EC50 ([1]; absence of SQ29,548, read-out: EC50 at TPVASC-receptor, rat aorta): 2 nM; EC50 ([1]; presence of SQ29,548 (1 uM), read-out: EC50 at TPVASC-receptor, rat aorta): 325 nM; EC50 (EP3 prostanoid receptor [6]): 245 nM

Q: With `CCCCC[C@H](O)/C=C/C1S[C@H]2CC(S2)[C@@H]1C/C=C\CCCC(=O)O` (stereo partly drawn) [Example 13] as the compound, how does the EC50 (rat aorta) read?
A: 0.7 nM

Q: What about the IC50 (HPRP; read-out: IC50 irreversible aggregation of HPRP) of the same compound?
A: 4300 nM

Q: With “[1R-[1α, 4α, 5β(Z), 6α(1E, 3S*)-7-[6-(3-hydroxy-1-octenyl)-2-oxabicyclo[2.2.1]hept-5-yl]-5-hepten-1-ol [Example 19]” as the compound, how does the EC50 [1, 7] read?
A: 26 nM

Q: For “[1S-[1α, 2α (5Z), 3α, 4α]]-7-[3-[[2-[phenylamino)carbonyl]-hydrazino]methyl]-7-oxabicyclo[2.2.1] hept-2-yl]-5-heptenoic acid [SQ29,548, reference compound]”, which Kb (Platelets (Human); Table 7) is on record?
A: 30.6 nM

Q: And the Kb ([1]; Table 7)?
A: 1.6 nM

Q: For I-BOP [reference compound], which EC50 (Platelets (Human); [8]) is on record?
A: 214 nM

Q: And the EC50 [1, 7]?
A: 2 nM

Q: For `CCCCCC(/C=C/C1C2CC(OC(=O)O2)C1C/C=C\CCCC(=O)O)OC(=O)C(C)(C)C` (stereo not drawn) [Example 12, 7-[6-carboxy-2-cis-hexenyl]-6-[3α-pivaloyloxy-1-trans-octenyl]-3-oxo-2,4-dioxobicyclo [3.2.1] Octane], which Intraocular pressure change ([2]; dose 0.1%, 2 HR after dosing) is on record?
A: −3.8**

Q: What about the Intraocular pressure change ([2]; dose 0.1%, 4 HR after dosing) of the same compound?
A: −4.7**

Q: And the Intraocular pressure change ([2]; dose 0.1%, 6 HR after dosing)?
A: −6.9**

Q: What about the “Effect on HPRP” value (HPRP) of the same compound?
A: no effect
